Laboratory results as given in patent publication US9169270B2, “1-phenyl-substituted heterocyclyl derivatives and their use as prostaglandin D2 receptor modulators” (Actelion Pharmaceuticals Ltd., priority 2012, dated 2015).

Molecular target: hCRTH2 receptor (Homo sapiens (Human), UniProt Q9Y5Y4)
Experiment: hCRTH2 receptor membranes radioligand (3H-PGD2) displacement assay
Details: hCRTH2 membrane fragments, Binding-Buffer with 0.1% BSA
Procedure: Biological Assays: Preparation of hCRTH2 Receptor Membranes and Radioligand Displacement Assay:
First, recombinant HEK293-hCRTH2 cells were detached from culture plates into 5 ml buffer A/plate (Buffer A: 5 mM Tris, 1 mM MgCl2-6H2O pH=7.4) using a rubber policeman. Cells were then transferred into centrifugation tubes and centrifuged for 5 min at 400 g. The cell pellet was resuspended in the same buffer and tubes were frozen at −80° C. Cells were thawed and membrane fragments were generated by homogenization using a polytron homogenizer (30 seconds). The membrane fragments were then centrifuged at 3000 g for 20 minutes and resuspended in buffer C (Buffer C: 75 mM Tris, 25 mM MgCl2, 250 mM Saccharose pH 7.4). Aliquots of membrane fragments were stored at −20° C.
Binding assay was performed in a final assay volume of 250 μl. First, 25 μl of test compound, previously diluted in Binding-Buffer (Binding-Buffer: 50 mM Tris-Base, 100 mM NaCl, 1 mM EDTA, 0.1% BSA (protease free), 0.01% NaN3, 10 mM MnCl2, pH 7.0) was placed into each well. […] Binding assay was started by addition of 100 μl CRTH2 membrane fragments, reaching a final concentration of 20 μg/well. For non-specific binding, PGD2 was added to the reaction mixture to […] final concentration. This assay mix was incubated for 90 minutes at room temperature and then filtered through a GF/C filter 96-well plate which was pre-soaked for 3 hours in 0.5% polyethyleneimine (PEI). The filter-wells were washed three times with ice cold Binding-Buffer. Then, 40 μl of Microscint-40 (Packard) was added to each well and the retained radioactivity quantified in a Topcount (Packard).

Sequence of hCRTH2 receptor (Q9Y5Y4 whole entry): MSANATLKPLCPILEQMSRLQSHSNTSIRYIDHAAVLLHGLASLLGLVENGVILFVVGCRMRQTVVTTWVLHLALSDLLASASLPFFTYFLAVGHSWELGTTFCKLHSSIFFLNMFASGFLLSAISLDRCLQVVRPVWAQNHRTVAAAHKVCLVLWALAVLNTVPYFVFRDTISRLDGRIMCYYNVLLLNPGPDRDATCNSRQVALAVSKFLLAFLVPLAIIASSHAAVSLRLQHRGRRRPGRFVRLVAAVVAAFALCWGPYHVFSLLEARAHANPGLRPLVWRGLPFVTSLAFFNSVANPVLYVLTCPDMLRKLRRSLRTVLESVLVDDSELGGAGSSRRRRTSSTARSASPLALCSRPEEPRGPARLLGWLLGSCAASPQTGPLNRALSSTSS

IC50	SMILES
65.7 nM	O=C(O)COc1ccc(Cl)cc1C1c2sc(C3CC3)nc2CCN1C(=O)OCc1ccccc1 (racemic) [Example 14, (±)-4-(2-Carboxymethoxy-5-chloro-phenyl)-2-cyclopropyl-6,7-dihydro-4H-thiazolo[5,4-c]pyridine-5-carboxylic acid benzyl ester]
2.8 nM	O=C(O)COc1ccc(Cl)cc1[C@@H]1c2scnc2CCN1C(=O)[C@@H]1C[C@H]1c1cccc(F)c1 [Example 7, (4-Chloro-2-{(R)-5-[(1R,2R)-2-(3-fluoro-phenyl)-cyclopropanecarbonyl]-4,5,6,7-tetrahydro-thiazolo[5,4-c]pyridin-4-yl}-phenoxy)-acetic acid]
25.6 nM	Cc1ccccc1CCC(=O)N1CCc2ncsc2C1c1cc(Cl)ccc1OCC(=O)O (racemic) [Example 29, (±)-{4-Chloro-2-[5-(3-o-tolyl-propionyl)-4,5,6,7-tetrahydro-thiazolo[5,4-c]pyridin-4-yl]-phenoxy}-acetic acid]
355 nM	C[C@@H](CC(=O)N1CCc2ncsc2C1c1cc(Cl)ccc1OCC(=O)O)c1ccccc1 (mixture of isomers) [Example 35, (±)-{4-Chloro-2-[5-((S)-3-phenyl-butyryl)-4,5,6,7-tetrahydro-thiazolo[5,4-c]pyridin-4-yl]-phenoxy}-acetic acid]
5.7 nM	O=C(O)COc1ccc(Cl)cc1C1c2scnc2CCN1C(=O)NCCc1ccccc1 (racemic) [Example 107, (±)-[4-Chloro-2-(5-phenethylcarbamoyl-4,5,6,7-tetrahydro-thiazolo[5,4-c]pyridin-4-yl)-phenoxy]-acetic acid]
83.9 nM	O=C(O)COc1ccc(Cl)cc1C1c2scnc2CCN1C(=O)CC1CC1 (racemic) [Example 41, (±)-{4-Chloro-2-[5-(2-cyclopropyl-acetyl)-4,5,6,7-tetrahydro-thiazolo[5,4-c]pyridin-4-yl]-phenoxy}-acetic acid]
5.1 nM	O=C(O)COc1ccc(Cl)cc1C1c2scnc2CCN1C(=O)OCc1nc2ccccc2o1 (racemic) [Example 97, (±)-4-(2-Carboxymethoxy-5-chloro-phenyl)-6,7-dihydro-4H-thiazolo[5,4-c]pyridine-5-carboxylic acid benzooxazol-2-ylmethyl ester]
6.1 nM	Cc1cccc(COC(=O)N2CCc3ncsc3C2c2cc(Cl)ccc2OCC(=O)O)c1C (racemic) [Example 101, (±)-4-(2-Carboxymethoxy-5-chloro-phenyl)-6,7-dihydro-4H-thiazolo[5,4-c]pyridine-5-carboxylic acid 2,3-dimethyl-benzyl ester]
38.9 nM	O=C(O)COc1ccc(Cl)cc1C1c2scnc2CCN1C(=O)NCc1cccc(F)c1 (racemic) [Example 2, (±)-{4-Chloro-2-[5-(3-fluoro-benzylcarbamoyl)-4,5,6,7-tetrahydro-thiazolo[5,4-c]pyridin-4-yl]-phenoxy}-acetic acid]
950 nM	CC(C)(C)CC(=O)N1CCc2ncsc2C1c1cc(Cl)ccc1OCC(=O)O (racemic) [Example 40, (±)-{4-Chloro-2-[5-(3,3-dimethyl-butyryl)-4,5,6,7-tetrahydro-thiazolo[5,4-c]pyridin-4-yl]-phenoxy}-acetic acid]
1.9 nM	O=C(O)COc1ccc(Cl)cc1C1c2scnc2CCN1C(=O)OCc1ccc(F)cc1 (racemic) [Example 80, (±)-4-(2-Carboxymethoxy-5-chloro-phenyl)-6,7-dihydro-4H-thiazolo[5,4-c]pyridine-5-carboxylic acid 4-fluoro-benzyl ester]
41.2 nM	COc1ccc(/C=C/C(=O)N2CCc3ncsc3C2c2cc(Cl)ccc2OCC(=O)O)cc1 (racemic) [Example 54, (±)-(4-Chloro-2-{5-[(E)-3-(4-methoxy-phenyl)-acryloyl]-4,5,6,7-tetrahydro-thiazolo[5,4-c]pyridin-4-yl}-phenoxy)-acetic acid]
4.71 nM	Cc1nc2c(s1)[C@@H](c1cc(Cl)ccc1OCC(=O)O)N(C(=O)OCc1ccccc1)CC2 [Example 19, (R)-4-(2-Carboxymethoxy-5-chloro-phenyl)-2-methyl-6,7-dihydro-4H-thiazolo[5,4-c]pyridine-5-carboxylic acid benzyl ester]
4.8 nM	COC(C)(C)CCOC(=O)N1CCc2ncsc2[C@H]1c1cc(Cl)ccc1OCC(=O)O [Example 62, (R)-4-(2-Carboxymethoxy-5-chloro-phenyl)-6,7-dihydro-4H-thiazolo[5,4-c]pyridine-5-carboxylic acid 3-methoxy-3-methyl-butyl ester]
0.3 nM	O=C(O)COc1ccc(Cl)cc1[C@@H]1c2scnc2CCN1C(=O)OCc1cc(F)ccc1Cl [Example 64, (R)-4-(2-Carboxymethoxy-5-chloro-phenyl)-6,7-dihydro-4H-thiazolo[5,4-c]pyridine-5-carboxylic acid 2-chloro-5-fluoro-benzyl ester]
4.2 nM	O=C(O)COc1ccc(Cl)cc1[C@@H]1c2scnc2CCN1C(=O)OCC1CCC1 [Example 69, (R)-4-(2-Carboxymethoxy-5-chloro-phenyl)-6,7-dihydro-4H-thiazolo[5,4-c]pyridine-5-carboxylic acid cyclobutylmethyl ester]
1.6 nM	O=C(O)COc1ccc(Cl)cc1C1c2scnc2CCN1C(=O)OCn1ncc2ccccc21 (racemic) [Example 90, (±)-4-(2-Carboxymethoxy-5-chloro-phenyl)-6,7-dihydro-4H-thiazolo[5,4-c]pyridine-5-carboxylic acid indazol-1-ylmethyl ester]
1.2 nM	O=C(O)COc1ccc(Cl)cc1C1c2scnc2CCN1C(=O)OCc1cccc(Cl)c1Cl (racemic) [Example 81, (±)-4-(2-Carboxymethoxy-5-chloro-phenyl)-6,7-dihydro-4H-thiazolo[5,4-c]pyridine-5-carboxylic acid 2,3-dichloro-benzyl ester]
17.1 nM	O=C(O)COc1ccc(Cl)cc1C1c2scnc2CCN1C(=O)OCc1ccc(Cl)cc1Cl (racemic) [Example 94, (±)-4-(2-Carboxymethoxy-5-chloro-phenyl)-6,7-dihydro-4H-thiazolo[5,4-c]pyridine-5-carboxylic acid 2,4-dichloro-benzyl ester]
8.1 nM	O=C(O)COc1ccc(Cl)cc1C1c2scnc2CCN1C(=O)CCCc1ccccc1F (racemic) [Example 30, (±)-(4-Chloro-2-{5-[4-(2-fluoro-phenyl)-butyryl]-4,5,6,7-tetrahydro-thiazolo[5,4-c]pyridin-4-yl}-phenoxy)-acetic acid]
2.2 nM	O=C(O)COc1ccc(Cl)cc1C1c2scnc2CCN1C(=O)OCc1cc(F)ccc1Cl (racemic) [Example 92, (±)-4-(2-Carboxymethoxy-5-chloro-phenyl)-6,7-dihydro-4H-thiazolo[5,4-c]pyridine-5-carboxylic acid 2-chloro-5-fluoro-benzyl ester]
6.5 nM	O=C(O)COc1ccc(Cl)cc1C1c2scnc2CCN1C(=O)[C@@H]1C[C@H]1c1ccccc1C(F)(F)F (mixture of isomers) [Example 23, (±)-(4-Chloro-2-{trans-5-[2-(2-trifluoromethyl-phenyl)-cyclopropanecarbonyl]-4,5,6,7-tetrahydro-thiazolo[5,4-c]pyridin-4-yl}-phenoxy)-acetic acid]
655 nM	Cc1nc2c(s1)[C@H](c1cc(Cl)ccc1OCC(=O)O)N(C(=O)OCc1ccccc1)CC2 [Example 18, (S)-4-(2-Carboxymethoxy-5-chloro-phenyl)-2-methyl-6,7-dihydro-4H-thiazolo[5,4-c]pyridine-5-carboxylic acid benzyl ester]
64.8 nM	CC(C)c1nc2c(s1)C(c1cc(Cl)ccc1OCC(=O)O)N(C(=O)OCc1ccccc1)CC2 (racemic) [Example 13, (±)-4-(2-Carboxymethoxy-5-chloro-phenyl)-2-isopropyl-6,7-dihydro-4H-thiazolo[5,4-c]pyridine-5-carboxylic acid benzyl ester]
491 nM	O=C(O)COc1ccc(Cl)cc1C1c2sc(NC(=O)C3CC3)nc2CCN1C(=O)OCc1ccccc1 (racemic) [Example 115, (±)-4-(2-Carboxymethoxy-5-chloro-phenyl)-2-(cyclopropanecarbonyl-amino)-6,7-dihydro-4H-thiazolo[5,4-c]pyridine-5-carboxylic acid benzyl ester]
130 nM	O=C(O)COc1ccc(Cl)cc1C1c2scnc2CCN1C(=O)CC1(c2ccccc2)CC1 (racemic) [Example 37, (±)-(4-Chloro-2-{5-[2-(1-phenyl-cyclopropyl)-acetyl]-4,5,6,7-tetrahydro-thiazolo[5,4-c]pyridin-4-yl}-phenoxy)-acetic acid]
17.8 nM	CC(C)COC(=O)N1CCc2ncsc2C1c1cc(Cl)ccc1OCC(=O)O (racemic) [Example 98, (±)-4-(2-Carboxymethoxy-5-chloro-phenyl)-6,7-dihydro-4H-thiazolo[5,4-c]pyridine-5-carboxylic acid isobutyl ester]
0.6 nM	O=C(O)COc1ccc(Cl)cc1[C@@H]1c2scnc2CCN1C(=O)OCc1ccccc1F [Example 75, (R)-4-(2-Carboxymethoxy-5-chloro-phenyl)-6,7-dihydro-4H-thiazolo[5,4-c]pyridine-5-carboxylic acid 2-fluoro-benzyl ester]
